Reference: PMC8963254, “Effects of Lysine N-ζ-Methylation in Ultrashort Tetrabasic Lipopeptides (UTBLPs) on the Potentiation of Rifampicin, Novobiocin, and Niclosamide in Gram-Negative Bacteria” (Antibiotics, 2022)
Like-named read-outs stand apart in the source and are kept apart here.

Legend:
E. coli 94393 = format: cell-based, Escherichia coli; settings: for MICUTBLP: UTBLP alone
Method in brief: (§1)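 Values derive from a two-agent checkerboard with an 18 h, 37 °C incubation. FICI cut-offs: ≤0.5 synergy, 0.5–4 additive, >4 antagonism.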

E. coli ATCC 25922 [1] = format: cell-based, Escherichia coli; settings: for MICUTBLP: UTBLP alone
Method in brief: as §1

E. coli 94474 = format: cell-based, Escherichia coli; settings: for MICUTBLP: UTBLP alone
Method in brief: as §1

MSSE 81388 [2] = format: cell-based, Staphylococcus epidermidis; settings: 18 h
Experimental: (§2) The in vitro antibacterial activity of the UTBLPs was assessed against wild-type and clinically isolated bacterial strains. To obtain the MIC of the compounds, the microbroth dilution susceptibility assay was performed according to the Clinical and Laboratory Standards Institute (CLSI, Wayne, PA, USA) guidelines and as previously described. Briefly, the compounds at varying concentrations were incubated with bacterial inoculum (5 × 10^5 CFU/mL final concentration) at 37 °C for 18 h. Growth in the form of turbidity was confirmed using an EMax Plus microplate reader (Molecular Devices, San Jose, CA, USA) at 590 nm.

MRSE 61589 [3] = format: cell-based, Staphylococcus epidermidis; settings: 61589, 18 h
Experimental: as §2

E. faecium ATCC 27270 = format: cell-based, Enterococcus faecium; settings: ATCC 27270, 18 h
Experimental: as §2

E. coli ATCC 25922 [4] = format: cell-based, Escherichia coli; settings: ATCC 25922, 18 h
Experimental: as §2

MSSE 81388 [5] = format: cell-based, Staphylococcus epidermidis
Method in brief: as §1

MRSE 61589 [6] = format: cell-based, Staphylococcus epidermidis
Method in brief: as §1

[7] = test system: P. aeruginosa PA259-96196; assay: microbe, parasite or virus in culture; format: cell-based, Pseudomonas aeruginosa; settings: PA259-96196, 18 h
Method in brief: (§3)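 Turbidity at 590 nm defined growth, from which the MIC was taken. Cultures at a final density of 5 × 10^5 CFU/mL were exposed to a range of compound levels at 37 °C for 18 h in a CLSI-based microdilution format.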

[8] = test system: P. aeruginosa PA262-101856; assay: microbe, parasite or virus in culture; format: cell-based, Pseudomonas aeruginosa; settings: PA262-101856, 18 h
Method in brief: as §3

E. faecalis ATCC 29212 = format: cell-based, Enterococcus faecalis; settings: ATCC 29212, 18 h
Experimental: as §2

A. baumannii ATCC 17978 [9] = format: cell-based, Acinetobacter baumannii; settings: for MICUTBLP: UTBLP alone
Method in brief: as §1

A. baumannii AB027 = format: cell-based, Acinetobacter baumannii; settings: for MICUTBLP: UTBLP alone
Method in brief: as §1

A. baumannii 92247 = format: cell-based, Acinetobacter baumannii; settings: for MICUTBLP: UTBLP alone
Method in brief: as §1

K. pneumoniae 113250 = format: cell-based, Klebsiella pneumoniae; settings: for MICUTBLP: UTBLP alone
Method in brief: as §1

A. baumannii ATCC 17978 [10] = format: cell-based, Acinetobacter baumannii; settings: ATCC 17978, 18 h
Experimental: as §2

[11] = UTBLP in combination with novobiocin
[12] = UTBLP in combination with rifampicin
[13] = novobiocin in combination with the UTBLP
[14] = rifampicin in combination with the UTBLP
[15] = UTBLP in combination with chloramphenicol
[16] = UTBLP in combination with niclosamide
[17] = chloramphenicol in combination with the UTBLP
[18] = niclosamide in combination with the UTBLP
[19] = UTBLP alone, plate with chloramphenicol

CCCCCCCC(=O)N[C@@H](CCCCNC)C(=O)NCCCN(CCCNC(=O)[C@H](CCCCNC)NC(=O)CCCCCCC)CC(=O)N[C@@H](CCCCNC)C(N)=O [UTBLP 2]
0.063 µg/mL: MICantibiotic [MICcombo] (A. baumannii AB027; [14]) | MICantibiotic [MICcombo] (A. baumannii 92247; [14])
64 µg/mL: MIC (MSSE 81388 [2]) | MIC (MRSE 61589 [3]) | MICUTBLP (MSSE 81388 [5]; [19]) | MICUTBLP (MRSE 61589 [6]; [19]) | MICantibiotic [MICcombo] (A. baumannii ATCC 17978 [9]; [17])
0.25 µg/mL: MICUTBLP [MICcombo] (E. coli ATCC 25922 [1]; [15]) | MICUTBLP [MICcombo] (MSSE 81388 [5]; [15]) | MICUTBLP [MICcombo] (MRSE 61589 [6]; [15]) | MICUTBLP [MICcombo] (A. baumannii ATCC 17978 [9]; [15]) | MICantibiotic [MICcombo] (A. baumannii AB027; [13]) | MICantibiotic [MICcombo] (A. baumannii 92247; [13])
0.125 µg/mL: MICantibiotic [MICcombo] (E. coli 94393; [14]) | MICantibiotic [MICcombo] (E. coli ATCC 25922 [1]; [14])
2 µg/mL: MICantibiotic [MICcombo] (E. coli ATCC 25922 [1]; [17]) | MICantibiotic [MICcombo] (E. coli ATCC 25922 [1]; [18]) | MICantibiotic [MICcombo] (A. baumannii ATCC 17978 [9]; [18])
1 µg/mL: MICantibiotic [MICcombo] (E. coli 94393; [13]) | MICantibiotic [MICcombo] (E. coli ATCC 25922 [1]; [13])
> 128 µg/mL: MICUTBLP (E. coli 94393; plate with novobiocin) | MICUTBLP (E. coli 94393; plate with rifampicin) | MICUTBLP (E. coli ATCC 25922 [1]; plate with chloramphenicol) | MICUTBLP (E. coli ATCC 25922 [1]; plate with niclosamide) | MICUTBLP (E. coli ATCC 25922 [1]; plate with novobiocin) | MICUTBLP (E. coli ATCC 25922 [1]; plate with rifampicin) | MICUTBLP (E. coli 94474; plate with novobiocin) | MICUTBLP (E. coli 94474; plate with rifampicin) | MIC [7] | MIC [8] | MICUTBLP (A. baumannii ATCC 17978 [9]; plate with chloramphenicol) | MICUTBLP (A. baumannii ATCC 17978 [9]; plate with niclosamide) | MICUTBLP (A. baumannii ATCC 17978 [9]; plate with novobiocin) | MICUTBLP (A. baumannii ATCC 17978 [9]; plate with rifampicin) | MICUTBLP (A. baumannii AB027; plate with novobiocin) | MICUTBLP (A. baumannii AB027; plate with rifampicin) | MICUTBLP (A. baumannii 92247; plate with novobiocin) | MICUTBLP (A. baumannii 92247; plate with rifampicin) | MICUTBLP (K. pneumoniae 113250; plate with novobiocin) | MICUTBLP (K. pneumoniae 113250; plate with rifampicin)
4 µg/mL: MICUTBLP [MICcombo] (E. coli ATCC 25922 [1]; [16]) | MICantibiotic [MICcombo] (E. coli 94474; [13]) | MICantibiotic [MICcombo] (K. pneumoniae 113250; [13]) | MICantibiotic [MICcombo] (K. pneumoniae 113250; [14])
16 µg/mL: MICUTBLP [MICcombo] (E. coli 94393; [11]) | MICUTBLP [MICcombo] (E. coli 94393; [12]) | MICUTBLP [MICcombo] (E. coli ATCC 25922 [1]; [12]) | MICUTBLP [MICcombo] (E. coli 94474; [11]) | MICUTBLP [MICcombo] (E. coli 94474; [12]) | MICchloramphenicol [MICcombo] (MRSE 61589 [6]; [17]) | MICUTBLP [MICcombo] (A. baumannii ATCC 17978 [9]; [12]) | MICUTBLP [MICcombo] (A. baumannii AB027; [11]) | MICUTBLP [MICcombo] (A. baumannii AB027; [12]) | MICUTBLP [MICcombo] (A. baumannii 92247; [11]) | MICUTBLP [MICcombo] (A. baumannii 92247; [12]) | MICUTBLP [MICcombo] (K. pneumoniae 113250; [11]) | MICUTBLP [MICcombo] (K. pneumoniae 113250; [12])
Additive (0.5 < x ≤ 4 is additive): Interpretation (E. coli ATCC 25922 [1]; UTBLP + chloramphenicol) | Interpretation (MSSE 81388 [5]; UTBLP + chloramphenicol) | Interpretation (MRSE 61589 [6]; UTBLP + chloramphenicol) | Interpretation (A. baumannii ATCC 17978 [9]; UTBLP + chloramphenicol)
0.031 µg/mL: MICantibiotic [MICcombo] (A. baumannii ATCC 17978 [9]; [14])
>128 µg/mL: MIC (E. faecium ATCC 27270) | MIC (E. coli ATCC 25922 [4]) | MIC (E. faecalis ATCC 29212) | MIC (A. baumannii ATCC 17978 [10])
8 µg/mL: MICUTBLP [MICcombo] (E. coli ATCC 25922 [1]; [11]) | MICchloramphenicol [MICcombo] (MSSE 81388 [5]; [17]) | MICUTBLP [MICcombo] (A. baumannii ATCC 17978 [9]; [16]) | MICUTBLP [MICcombo] (A. baumannii ATCC 17978 [9]; [11])
Synergy (FICI ≤ 0.5 is synergistic): Interpretation (E. coli 94393; UTBLP + novobiocin) | Interpretation (E. coli 94393; UTBLP + rifampicin) | Interpretation (E. coli ATCC 25922 [1]; UTBLP + niclosamide) | Interpretation (E. coli ATCC 25922 [1]; UTBLP + novobiocin) | Interpretation (E. coli ATCC 25922 [1]; UTBLP + rifampicin) | Interpretation (E. coli 94474; UTBLP + novobiocin) | Interpretation (E. coli 94474; UTBLP + rifampicin) | Interpretation (A. baumannii ATCC 17978 [9]; UTBLP + niclosamide) | Interpretation (A. baumannii ATCC 17978 [9]; UTBLP + novobiocin) | Interpretation (A. baumannii ATCC 17978 [9]; UTBLP + rifampicin) | Interpretation (A. baumannii AB027; UTBLP + novobiocin) | Interpretation (A. baumannii AB027; UTBLP + rifampicin) | Interpretation (A. baumannii 92247; UTBLP + novobiocin) | Interpretation (A. baumannii 92247; UTBLP + rifampicin) | Interpretation (K. pneumoniae 113250; UTBLP + novobiocin) | Interpretation (K. pneumoniae 113250; UTBLP + rifampicin)
0.5 µg/mL: MICantibiotic [MICcombo] (E. coli 94474; [14]) | MICantibiotic [MICcombo] (A. baumannii ATCC 17978 [9]; [13])
